Test results published in patent US20110092591A1, “PHENYL-PRENYL DERIVATIVES, OF MARINE AND SYNTHETIC ORIGIN, FOR THE TREATMENT OF COGNITIVE, NEURODEGENERATIVE OR NEURONAL DISEASES OR DISORDERS” (NOSCIRA S.A., priority 2008, published 2011).
Like-named read-outs stand apart in the source and are kept apart here.

Legend:
Assay type in all cases: biochemical
[1] = biological target: T1, Recombinant human glycogen synthase kinase 3 beta (Homo sapiens, UniProt P49841); experiment: GSK-3 beta inhibition assay (33P-ATP, GS-2 peptide)
T1 sequence (P49841 whole entry): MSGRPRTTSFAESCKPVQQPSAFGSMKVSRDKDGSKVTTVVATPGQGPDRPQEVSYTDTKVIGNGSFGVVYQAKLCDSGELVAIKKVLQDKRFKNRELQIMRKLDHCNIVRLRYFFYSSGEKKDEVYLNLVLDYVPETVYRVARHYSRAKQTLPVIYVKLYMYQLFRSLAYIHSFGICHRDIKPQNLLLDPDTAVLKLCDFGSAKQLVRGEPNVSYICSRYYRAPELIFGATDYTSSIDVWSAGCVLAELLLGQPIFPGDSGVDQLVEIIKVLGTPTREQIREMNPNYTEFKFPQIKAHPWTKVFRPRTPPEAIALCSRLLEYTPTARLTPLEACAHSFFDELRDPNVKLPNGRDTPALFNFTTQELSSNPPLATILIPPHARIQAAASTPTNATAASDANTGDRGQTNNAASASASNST

[2] = biological target: T1, Recombinant human glycogen synthase kinase 3 beta; experiment: as above; conditions: 0.5 h, percentage of the enzyme activity (remaining), read-out: % Act. GSK-3 beta; for remaining activity at 25 µM: compound at 25 μM; for remaining activity at 50 µM: compound at 50 μM
Experimental: The GSK-3 beta activity of the compounds of formula (I) according to the present invention was determined by incubation of a mixture of recombinant human GSK-3 enzyme, a phosphate source and GSK-3 substrate in the presence and in the absence of the corresponding test compound, and by measuring the GSK-3 activity of this mixture. The compounds where tested at final concentrations of 25 and 50 μM.
Recombinant human glycogen synthase kinase 3 beta was assayed in MOPS 11 mM, pH 7.4, EDTA 0.2 mM, EGTA 1.25 mM, MgCl2 26.25 mM and sodium orthovanadate 0.25 mM in the presence of 62.5 μM of Phospho-Glycogen Synthase Peptide-2 (GS-2), 0.5 μCi gamma-^33P-ATP and unlabelled ATP at a final concentration of 12.5 μM. The final assay volume was 20 μl. After incubation for 30 minutes at 30° C., 15 μl aliquots were spotted onto P81 phosphocellulose papers. Filters were washed four times for at least 10 minutes each and counted with 1.5 ml of scintillation cocktail in a scintillation counter.
The compounds of formula (I) of the present invention where submitted to the above indicated assay, in order to determine their GSK-3 inhibition activity. The results are indicated in Table II, in percentage of the enzyme activity.

[3] = biological target: T2, rhBACE-1 β-Secretase recombinant human (Homo sapiens, UniProt P56817); experiment: BACE assay (FRET, fluorogenic peptide substrate); conditions: for % BACE Activity: percentage of the enzyme activity (remaining)
T2 construct: purchased R&D Systems 931-AS
T2 sequence (P56817 46-457 limits assumed): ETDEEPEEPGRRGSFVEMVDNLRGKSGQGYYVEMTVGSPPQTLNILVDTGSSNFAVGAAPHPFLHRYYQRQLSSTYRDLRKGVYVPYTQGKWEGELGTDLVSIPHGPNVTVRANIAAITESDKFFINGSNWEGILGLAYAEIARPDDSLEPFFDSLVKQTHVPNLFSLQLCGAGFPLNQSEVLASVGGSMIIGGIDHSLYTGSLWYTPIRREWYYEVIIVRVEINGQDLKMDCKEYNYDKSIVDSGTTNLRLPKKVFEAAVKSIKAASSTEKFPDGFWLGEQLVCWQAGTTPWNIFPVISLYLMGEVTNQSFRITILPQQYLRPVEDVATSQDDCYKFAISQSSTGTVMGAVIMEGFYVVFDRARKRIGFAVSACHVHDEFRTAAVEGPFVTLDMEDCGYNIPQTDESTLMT
From the text: The aim of this assay is to determine if a compound, either synthetic or of marine origin, is a BACE-1 inhibitor, to avoid the formation of Aβ. This assay is based on FRET technology (Fluorescence Resonance Energy Transfer). FRET is used to measure cleavage of a peptide substrate, among other uses. […] When a substrate peptide cleavage occurs, the energy balance is broken and all the donor fluorescence can be observed. The increase in fluorescence is linearly related to the rate of proteolysis (Gordon, G W et al., 1998). In this assay the reaction occurs between an enzyme, purified BACE-1, and a fluorogenic peptidic substrate who present the “Swedish mutation”. The peptide cleavage by BACE-1 produces fluorescence energy and enzymatic activity can be quantified.
The reagents which are used in this assay are the following:
rhBACE-1 β-Secretase recombinant human (R&D Systems. Ref. 931-AS).
Fluorogenic Peptide Substrate IV (R&D Systems. Ref. ES004).
Beta-SECRETASE INHIBITOR H-4848. (BACHEM. Ref. H-4848.0001).
The assay is carried out in a 96 wells microplate. The final concentration of substrate is 3.5 μM per well, and the enzyme concentration is 0.5 μg/ml. The final volume of the assay is 100 μl per well and all reagents are diluted in Reaction Buffer.
The compounds are tested at a concentration of 10^−5 and 10^−6 M. The control in the assay is the commercial inhibitor β-Secretase inhibitor H-4848 from BACHEM, which is tested at 300 nM. All the samples and controls are studied by duplicate.
The plate is mixed gently and changes in the fluorescence are measured using a fluorimeter plate reader, with 320 nm excitation filter and 405 nm emission filter. The temperature should be preferably maintained between 25 and 30° C. Measurements are carried out every ten minutes during an hour. The first measure is subtracted from the last to calculate the fluorescence increase, evaluating the enzymatic activity. The 100% activity is calculated as the mean of the results of wells without sample or inhibitor.
In the cases where abnormal effects in fluorescence were detected, BACE inhibition activity was assayed using BACE-1 (beta-Secretase) FRET ASSAY KIT (Invitrogen, Ref. P2985). Fluorescence was measured with a fluorimeter plate reader, with 544 nm excitation filter and 580 nm emission filter.
Further information regarding this assay may be found in the following references, which are incorporated by reference into the present application: • Andrau, D et al; “BACE1- and BACE2-expressing human cells: characterization of beta-Amyloid precursor protein-derived catabolites, design of a novel fluorimetric assay, and identification of new in vitro inhibitors”. J Biol Chem. 2003 Jul. 11; 278(28):25859-66. • Gordon, G W et al; “Quantitative fluorescence resonance energy transfer measurements using fluorescence microscopy.” Biophys J. 1998 May; 74:2702-13.
The compounds of formula (I) of the present invention where submitted to the above indicated assay, in order to determine their BACE activity inhibition. The results are indicated in Table I, in percentage of the enzyme activity.

Row | IC50 [1] [µM] | remaining activity at 25 µM [2] [%] | remaining activity at 50 µM [2] [%] | % BACE Activity ([3]; compound at 1 μM) [%] | % BACE Activity ([3]; compound at 10 μM) [%] | IC50 ([3]; given in M) [µM] | IC50 [3] [µM] | SMILES
1 | 4.42 | 5.43 | 2.82 | 45 ± 21 | 0 |  |  | CC(C)=CCC/C(C)=C/CC/C(C)=C/CC/C(C)=C/Cc1cc(C(=O)O)ccc1O [Compound 1, (2E,6E,10E)-4-Hydroxy-3-(3,7,11,15-tetramethyl-hexadeca-2,6,10,14-tetraenyl)-benzoic acid]
2 | 12.5 | 37.7 | 5.04 | 100 | 13 ± 14 |  |  | CC(C)=CCC/C(C)=C/CC/C(C)=C/CC/C(C)=C/Cc1cc(O)ccc1O [Compound 2]
3 | 55.8 | 52.9 | 4.19 |  |  |  |  | C/C(=C\CC/C(C)=C/CC/C(C)=C/Cc1cc(C(=O)O)ccc1O)C/C=C/C(C)(C)O [Compound 3]
4 | 9.97 | 17.8 | 17.7 |  |  |  |  | CC(C)=CCC/C(C)=C/CC/C(C)=C/CC/C(C)=C/CC/C(C)=C/Cc1cc(O)ccc1O [Compound 4]
5 |  |  | 70.8 |  |  |  |  | COC(=O)c1ccc(O)c(C/C=C(\C)CC/C=C(\C)CC/C=C(\C)CCC=C(C)C)c1 [Compound 5]
6 |  | 71.6 | 78 | 100 | 100 |  |  | CC(C)=CCc1cc(C(=O)O)ccc1O [Compound 6]
7 | 16 | 33.5 | 3.08 | 100 | 42 ± 5 |  |  | COCOc1ccc(C=O)cc1C/C=C(\C)CCC=C(C)C [Compound 8, (2E)-3-(3,7-dimethyl-octa-2,6-dienyl)-4-methoxymethoxy-benzaldehyde]
8 |  | 61.3 | 5.75 | 94 ± 22 | 60 ± 16 | 37 |  | COCOc1ccc(C=O)cc1C/C=C(\C)CC/C=C(\C)CCC=C(C)C [Compound 9, (2E,6E)-4-methoxymethoxy-3-(3,7,11-trimethyl-dodeca-2,6,10-trienyl)-benzaldehyde]
9 | 8.6 | 12.1 | 1.07 | 91 ± 6 | 44 ± 12 |  |  | CC(C)=CCC/C(C)=C/Cc1cc(C=O)ccc1O [Compound 11]
10 | 7.87 | 9.26 | 0.95 | 57 ± 2 | 41 ± 4 |  |  | CC(C)=CCC/C(C)=C/CC/C(C)=C/Cc1cc(C=O)ccc1O [Compound 12]
11 | 17.4 | 52 | 4.71 | 100 | 88 ± 8.5 |  |  | CC(C)=CCC/C(C)=C/CC/C(C)=C/CC/C(C)=C/Cc1cc(C=O)ccc1O [Compound 13]
12 |  | 75.7 | 60.3 | 100 | 84 ± 6 |  |  | CC(C)=CCC/C(C)=C/Cc1cc(C(=O)O)ccc1O [Compound 14]
13 | 11 | 24.6 | 3.27 | 100 | 5 ± 9 |  |  | CC(C)=CCC/C(C)=C/CC/C(C)=C/Cc1cc(C(=O)O)ccc1O [Compound 15]
14 |  | 71.9 | 52.1 | 100 | 100 |  |  | CC(C)=CCC/C(C)=C/CC/C(C)=C/CC/C(C)=C/Cc1cc(C(=O)OCc2ccccc2)ccc1OCc1ccccc1 [Compound 17]
15 |  | 32.8 | 13.3 | 100 | 100 |  |  | CCNC(=O)c1ccc(O)c(C/C=C(\C)CC/C=C(\C)CC/C=C(\C)CCC=C(C)C)c1 [Compound 18]
16 | 2.77 | 10.7 | 4.58 | 87 ± 14.5 | 17.5 ± 0.7 |  | 20.5 ± 2.8 | CC(=O)Oc1ccc(C(=O)O)cc1C/C=C(\C)CC/C=C(\C)CC/C=C(\C)CCC=C(C)C [Compound 19]
17 |  | 100 | 79.9 | 88 ± 9 | 27 ± 3 |  |  | COCOc1ccc(C(=O)O)cc1C/C=C(\C)CCC=C(C)C [Compound 21]
18 |  | 2.22 | 2.01 | 99 ± 2 | 88 ± 13 |  |  | CC(C)=CCC/C(C)=C/CC/C(C)=C/Cc1cc(C=O)ccc1OCc1ccccc1 [Compound 23]
19 |  | 49.7 | 22.8 | 100 | 100 |  |  | CC(C)=CCC/C(C)=C/CC/C(C)=C/CC/C(C)=C/Cc1cc(C(=O)OCc2ccccc2)ccc1O [Compound 24]
20 | 22 | 9.18 | 4.5 | 100 | 100 |  |  | COCOC(=O)c1ccc(O)c(C/C=C(\C)CC/C=C(\C)CC/C=C(\C)CCC=C(C)C)c1 [Compound 25]
21 |  | 71.4 | 41 | 100 | 100 |  |  | CC(C)=CCC/C(C)=C/CC/C(C)=C/Cc1cc(C(=O)O)ccc1OCc1ccccc1 [Compound 26]
22 |  | 85.1 | 65.8 | 34 ± 27 | 0 ± 0 |  |  | CC(C)=CCC/C(C)=C/Cc1cc(C(=O)O)ccc1OCc1ccccc1 [Compound 27]
23 | 18 | 17.1 | 2.44 | 87 ± 10 | 33 ± 7 |  |  | COCOc1ccc(C(=O)O)cc1C/C=C(\C)CC/C=C(\C)CCC=C(C)C [Compound 28]

Row | SMILES | IC50 [1] [µM] | remaining activity at 25 µM [2] [%] | remaining activity at 50 µM [2] [%] | % BACE Activity ([3]; compound at 1 μM) [%] | % BACE Activity ([3]; compound at 10 μM) [%] | IC50 ([3]; given in M) [µM] | IC50 [3] [µM]
24 | COCOC(=O)c1ccc(OC(C)=O)c(C/C=C(\C)CC/C=C(\C)CC/C=C(\C)CCC=C(C)C)c1 [Compound 20, (2E,6E,10E)-4-Acetoxy-3-(3,7,11,15-tetramethyl-hexadeca-2,6,10,14-tetraenyl)-benzoic acid methoxymethyl ester] |  | 51 | 17.7 | 100 | 100 |  | 
